Consider eight compounds from PMC12346198 (Cancers, 2025).

The nature of data set [1]: Pharmacokinetic modeling of valine pro-drug conversion to parent. The following applies: for k el: C57BL/6, mouse, plasma, model estimate, read-out: Kel, elimination rate constant of valine conjugate (converted); for Kmet, rate constant of conversion to parent compound: Kmet = Fm × Kel; for Fraction of pro-drug converted to parent (Fm): two-compartment model estimate. Type of data set: in vivo, mice. The text has this: A total of 36 mice with available PK data were included for non-linear mixed-effects analysis using NONMEM (version 7.5.0, ICON Development Solutions, Ellicott City, MD, USA), implementing the first-order conditional estimation with interaction (FOCE-I). R (version 4.2.0, R Foundation for Statistical Computing, Vienna, AUT, http://www.r-project.org) was used for visual diagnostics. […] The analyte (valine conjugate and parent compound) plasma concentration–time data were confirmed to have a biphasic distribution and elimination and were therefore fit separately to a linear two-compartment model with a depot for oral administration. Each model was parametrized in terms of clearance (CL), the volume of distribution of the central compartment (V1), intercompartmental clearance (Q), and the volume of the peripheral compartment (V3). Interindividual variability (IIV) for each parameter was assumed to be log-normally distributed, and residual variability (RUV) was described with a proportional error model. The PK parameter estimates from these independent models (parent compound or valine conjugate) were used as initial estimates for a combined model describing the conversion and disposition of the valine conjugate to the parent drug and associated metabolites. The model estimated the fraction of pro-drug converted to parent drug (Fm), which was used to calculate the first-order rate constant of metabolite formation (Kmet) = Fm × Kel. This rate constant was used to calculate the half-life of the conversion process and the amount of metabolite formed at complete conversion. The rate of metabolite formation was then calculated as the ratio of the amount of metabolite formed to the time required for complete conversion (~5 half-lives), as detailed in Figures S8–S11.

Data set [2] deals with SNU475 cells. Put plainly: Hollow fiber assay (HFA) model of AR-SV HCC. The following applies: for Cell viability within hollow fibers (MTT assay): nude mice. It is filed as in vivo. The text has this: The hollow fiber procedures were based upon those developed by Hollingshead et al. with technical consultation kindly provided by Drs. Joanna Burdette and Dan Lantvit (University of Illinois Chicago, Chicago, IL, USA). […] In order to utilize a PO dosing approach with the HFA, we extended the traditional HFA timeline to establish angiogenesis, as noted in the literature. […] Hollow fibers (KrosFlo Implant Membranes, M138615, Repligen, Waltham, MA, USA) were filled with 3 × 10^6 SNU475 cells/mL per length and heat-sealed into 2 cm lengths on Day −1. On Day 0, three fibers were implanted into 20-week-old male outbred homozygous athymic nude mice (Foxn1^nu/Foxn1^nu, The Jackson Laboratory, Bar Harbor, ME, USA) subcutaneously parallel to the spine. Following a 14-day waiting period to allow for angiogenesis around the fibers, treatment was initiated. […] On Day 21, mice were euthanized and hollow fibers were explanted. The MTT assay was performed according to the KrosFlo Implant Membrane protocol utilizing Thiazolyl Blue Tetrazolium Bromide (M2128, MilliporeSigma, Burlington, MA, USA).
(Formazan colour is commonly taken as a measure of viable cells.)

Data set [3] in a line: Two-week tolerability study. The following applies: daily PO for 14 days.
Experimental: Mice were group-housed under conditions of a constant photoperiod (12 h light/12 h dark), temperature, and humidity with ad libitum access to water and standard pelleted chow. […] Control mice were treated with the vehicle (DMSO–Cremophor EL–water, 3:15:82 by volume). Treatments were administered PO by gavage once daily for 14 days. Mouse weights were measured every 2 days. At the study endpoint, mice were euthanized approximately 2–4 h after the last dose. Blood was collected by cardiac puncture immediately after CO2 euthanasia. At necropsy, carcasses were examined for grossly visible lesions, and organ weights were measured (liver, kidneys, spleen, urogenital tract, testes, heart, lungs, brain). Whole blood and serum were submitted to the Comparative Pathology and Digital Imaging Shared Resource at the Ohio State Comprehensive Cancer Center (OSUCCC, Columbus, OH, USA) for the determination of complete blood counts and serum chemistry.
Data set [4] in a line: Single-dose IV and PO pharmacokinetics in mice. It is filed as in vivo, male C57BL/6 mice. The settings on record: for Oral bioavailability compared to parent compound: Figure S5D; for Expected plasma levels for up to 8 h post-dose: linearly scaled from PK data, BID 75 mg/kg niclosamide, 105.7 mg/kg valine–niclosamide, 87.3 mg/kg valine–compound #7, 62.9 mg/kg compound #7; for AUC: analyte = dosed compound; for Cmax: read-out: Cmax, Geo Mean; for Tmax: read-out: Tmax, Geo Mean; for clearance: single IV dose, 2 mg/kg or molar equivalent, read-out: Systemic clearance following an IV dose (converted). The procedure:
The in-life study and quantitative analysis of plasma samples using LC/MS were performed at Charles River Laboratories, Inc. (Wilmington, MA, USA).

The conditions of data set [5]: cited from earlier work.
The subject of data set [6] is SNU475. Nature of the data set: CCK-8 cytotoxicity assay, SNU475. It is filed as cell-based, human. The following applies: 72 h treatment. The procedure: (§1) The cytotoxicity of compounds was determined by the CCK-8 assay (Cell Counting Kit-8, CK04, Dojindo Molecular Technologies, Kumamoto, Japan). Cell lines were plated at 10,000 cells/well in 96-well plates and incubated overnight to allow for adherence (5% CO2, 37 °C). […] Cells were placed back in the incubator for 72 h treatment. CCK-8 reagent was added, and plates were further incubated 1–4 h as directed by the supplier’s instructions. Optical density was measured using a Biotek Synergy H1 plate reader at 450 nm. Primary hepatocytes were plated at 30,000 cells or 50,000 cells/well and maintained according to the technical information bulletin provided by the supplier. Upon treatment, maintenance media were supplemented with 10% FBS and fresh test compound for all subsequent media changes, as directed.

For data set [7], the system named is HepG2. Put plainly: CCK-8 cytotoxicity assay, HepG2. The following applies: Homo sapiens, HepG2, 72 h, 72 h treatment. Type of data set: cell-based, human. Here is the method:
as §1

In data set [8] the test system is SNU423. Put plainly: CCK-8 cytotoxicity assay, SNU423. Type of data set: cell-based. The following applies: Homo sapiens, SNU-423, 72 h treatment. The procedure: as §1
Data set [9] deals with Primary Male Hepatocytes. Nature of the data set: CCK-8 cytotoxicity assay, primary male hepatocytes. The settings on record: Hepatocyte, 72 h, 72 h treatment. It is filed as cell-based. Here is the method: as §1
For data set [10], the system named is THLE-2. Nature of the data set: CCK-8 cytotoxicity assay, THLE-2. Type of data set: cell-based. The following applies: Homo sapiens, 72 h treatment. Here is the method:
as §1

The mark [11] stands for this setting: BID PO one week, niclosamide 75, valine–niclosamide 106.1, valine–compound #7 87.3, compound #7 62.9 mg/kg.
The mark [12] stands for this setting: IV, 2 mg/kg (valine conjugates 2 mg/kg EQV).
The mark [13] stands for this setting: IV, 2 mg/kg (valine conjugates 2 mg/kg EQV), non-compartmental analysis.
[14] abbreviates: PO, 40 mg/kg (valine conjugates 40 mg/kg EQV).
Setting [15] is: male, C57BL/6, mouse, plasma, iv, 2 mg/kg, IV, 2 mg/kg (valine conjugates 2 mg/kg EQV), non-compartmental analysis, read-out: AUCall, Geo Mean.
Setting [16] is: male, C57BL/6, mouse, plasma, iv, 2 mg/kg, IV, 2 mg/kg (valine conjugates 2 mg/kg EQV).
Setting [17] is: male, C57BL/6, mouse, plasma, po, 40 mg/kg, PO, 40 mg/kg (valine conjugates 40 mg/kg EQV), non-compartmental analysis, read-out: AUCall, Geo Mean.
[18] abbreviates: male, C57BL/6, mouse, plasma, po, 40 mg/kg, PO, 40 mg/kg (valine conjugates 40 mg/kg EQV).
Where [19] appears, read: male, C57BL/6, mouse, plasma, po, 40 mg/kg, single PO dose, 40 mg/kg or molar equivalent, read-out: AUCall following an oral dose.
Where [20] appears, read: male, C57BL/6, mouse, plasma, IV, 2 mg/kg (valine conjugates 2 mg/kg EQV).
Where [21] appears, read: male, C57BL/6, mouse, plasma, PO, 40 mg/kg (valine conjugates 40 mg/kg EQV).

Counter-ions that a name gives are not always drawn. Like-named read-outs stand apart in the source and are kept apart here.

In the case of `CC(C)[C@H](N)C(=O)Oc1ccc(Cl)cc1C(=O)Nc1ccc([N+](=O)[O-])cc1Cl` [valine–niclosamide], in [1], the k el is 0.000789 s⁻¹; the “Kmet, rate constant of conversion to parent compound” value amounted to 0.64 h⁻¹; the “Fraction of pro-drug converted to parent (Fm)” value is listed as 23%. In addition, in [2] (setting [11]), the “Cell viability within hollow fibers (MTT assay)” value is given as “no differences in cell viability”. The “Impact on body weight” value in data set [3] (14.1, 56.4, 141.0 mg/kg) is reported as “no significant impact”. Further, in [3] (ALT, AST, albumin), the “Impact on liver enzyme levels” value is on record as “no significant impact”. For the same compound, the “Spleen weights as a percentage of body weight” value in [3] (versus vehicle) is recorded as “increase at the highest dose level”. Further, in [4], the “Oral bioavailability compared to parent compound” value is reported as “significantly higher oral bioavailability” and the “Expected plasma levels for up to 8 h post-dose” value is roughly 3.5 µM. Besides, the “HL_Lambda_z, Geo Mean” value in data set [4] (setting [12]) was 1.54 h. For the same compound, the “IV: Clobs, Geo Mean” value in [4] (setting [13]) stood at 0.02 L/h. In addition, in data set [4] (PO), the “Fold improvement in Cmax over orally administered niclosamide” value stood at 6.8 fold and the “Fold increase in systemic exposure over orally administered niclosamide” value amounted to 14.9 fold. Also, in data set [4] (setting [14]), the “HL_Lambda_z, Geo Mean” value was determined as 4.11 h and the “PO: Cl_Fobs, Geo Mean” value turned out to be 0.05 L/h. Moreover, in data set [4] (PO, molar equivalent of 40 mg/kg), the “Fold increase in plasma levels at 4 h over niclosamide” value is listed as “more than 16 fold”. For the same compound, the AUC in data set [4] (setting [15]) was found to be 7.52 µM·h. The Cmax (in general, the maximum level reached in the sampled fluid or tissue) in [4] (setting [16]) was determined as 11.2 µM. In data set [4] (setting [17]), the AUC was 48.6 µM·h. In addition, the Cmax in data set [4] (setting [18]) was found to be 11.2 µM. For the same compound, in [4] (setting [19]), the AUC was found to be 48.6 µM·h. Besides, in [4] (male, C57BL/6, mouse, plasma, po, 40 mg/kg, read-out: Plasma level at 4 h after a molar equivalent oral dose), the concentration at 4 h is 3.59 µM. Moreover, the time of peak concentration (Tmax) (as a rule, the time at which the peak concentration occurs) in [4] (setting [20]) was determined as 4.8 min. Also, the time to peak (Tmax) in data set [4] (setting [21]) came to 40.2 min. In addition, the clearance in [4] (male, C57BL/6, mouse, plasma) is 0.333 mL/min.

As to `CC(C)[C@H](N)C(=O)Oc1ccc(Cl)cc1C(=O)Nc1ccc(C(F)(F)F)cc1Cl` [valine–compound #7], the k el in [1] was 0.00147 s⁻¹. In [1], the “Kmet, rate constant of conversion to parent compound” value worked out at 1.32 h⁻¹. For the same compound, in data set [1], the “Fraction of pro-drug converted to parent (Fm)” value is 25%. Further, in [2] (87.3 mg/kg BID PO, two mice excluded), the “Toxicity in HFA study mice” value is listed as “apparent toxicity”. Besides, the “Cell viability within hollow fibers (MTT assay)” value in data set [2] (setting [11]) is reported as “no differences in cell viability”. For the same compound, the “Oral bioavailability compared to parent compound” value in data set [4] was “this was not observed”. Besides, the “HL_Lambda_z, Geo Mean” value in data set [4] (setting [12]) is 4.20 h; in [4] (setting [14]) it was 6.46 h. In [4] (setting [13]), the “IV: Clobs, Geo Mean” value came to 0.01 L/h. Moreover, the “PO: Cl_Fobs, Geo Mean” value in data set [4] (setting [14]) is 0.05 L/h. In addition, in data set [4], the “Expected plasma levels for up to 8 h post-dose” value turned out to be 3.7 µM. The AUC was determined as 13.5 µM·h in [4] (setting [15]), 62.1 µM·h in data set [4] (setting [17]) and 62.1 µM·h in data set [4] (setting [19]). The Cmax in data set [4] (setting [16]) came to 10.1 µM; in data set [4] (setting [18]) it was 7.71 µM. Moreover, the values for the Tmax in data set [4] (setting [20]) and in [4] (setting [21]) were 4.8 min and 75.6 min, respectively. Further, the clearance in data set [4] (male, C57BL/6, mouse, plasma) is 0.167 mL/min.

Regarding `O=C(Nc1ccc([N+](=O)[O-])cc1Cl)c1cc(Cl)ccc1O` [NEN, niclosamide ethanolamine salt], the “Plasma niclosamide concentration 4 h after oral administration” value in data set [5] (40 mg/kg dose PO) is reported as “roughly 0.72 µM”. Besides, the “Improvement of plasma niclosamide concentration over niclosamide” value in data set [5] (4 h after oral administration) is listed as “more than seven-fold”.

As for `CNC(=O)c1cc(Oc2ccc(NC(=O)Nc3ccc(Cl)c(C(F)(F)F)c3)c(F)c2)ccn1` [Regorafenib, regorafenib], the half-inhibitory concentration (IC50) (usually the point on the concentration scale where inhibition reaches its midpoint) in [6] is 1.63 µM; in [6] (Homo sapiens, SNU-475, 72 h) it was 1.6 µM; in [7] it was 11.9 µM; in data set [8] it was 5.5 µM; in data set [9], greater than 30 µM; in data set [10], greater than 30 µM.

Consider `CC(=O)O[C@H]1C(=O)[C@@]2(C)[C@H]([C@H](OC(=O)c3ccccc3)[C@]3(O)C[C@H](OC(=O)[C@H](O)[C@@H](NC(=O)c4ccccc4)c4ccccc4)C(C)=C1C3(C)C)[C@]1(OC(C)=O)CO[C@@H]1C[C@@H]2O` [PTX, Paclitaxel, reference compound], for which, in data set [2] (25 mg/kg IP every other day for one week), the “Cell viability within hollow fibers (MTT assay)” value is listed as “significant decrease in cell viability”.

In the case of `COc1cc2nccc(Oc3ccc(NC(=O)NC4CC4)c(Cl)c3)c2cc1C(N)=O` [Lenvatinib, lenvatinib], the IC50 in data set [6] (Homo sapiens, SNU-475, 72 h) is 13 µM; in data set [7], greater than 30 µM; in data set [8] it was greater than 30 µM; in data set [9], greater than 30 µM; in data set [10], 25.1 µM.

`CNC(=O)c1ccc(N2C(=S)N(c3ccc(C#N)c(C(F)(F)F)c3)C(=O)C2(C)C)cc1F` [Enzalutamide, enzalutamide]: the IC50 in data set [9] is greater than 30 µM.

In the case of `CNC(=O)c1cc(Oc2ccc(NC(=O)Nc3ccc(Cl)c(C(F)(F)F)c3)cc2)ccn1` [Sorafenib, sorafenib], the IC50 in data set [6] was 4.2 µM; in data set [6] (Homo sapiens, SNU-475, 72 h), 4 µM; in data set [7], 10.8 µM; in [8], 6.1 µM; in data set [9], 5.1 µM; in data set [10] it was greater than 30 µM.
